The target of data set [1] is T1, EntNfsB (Enterobacter cloacae, UniProt Q01234, T41L/Y68L/F124L).
T1 construct: gene nfsB
The conditions noted are these: pH 7.4, 37 °C, saturating cofactor, anaerobic.

The target in data set [2] is T2, EntNfsB (Enterobacter cloacae, UniProt Q01234).
T2 construct: gene nfsB; full length, C-terminal His6 (pUC19), E. coli BL21(DE3), FMN holoprotein
T2 sequence (Q01234 1-217): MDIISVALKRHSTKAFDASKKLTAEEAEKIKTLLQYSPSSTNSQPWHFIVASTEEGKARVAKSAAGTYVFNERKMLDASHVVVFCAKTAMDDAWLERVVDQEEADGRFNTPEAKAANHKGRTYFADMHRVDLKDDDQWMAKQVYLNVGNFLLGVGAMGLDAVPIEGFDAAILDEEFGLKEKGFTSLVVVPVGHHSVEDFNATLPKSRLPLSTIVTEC
As to the kind of experiment: NADH absorbance, initial rates, anaerobic. The data set is classed as biochemical. The conditions noted are these: pH 7.4, 37 °C, activity too low for kinetic parameters.

In data set [3] the target is T3, BUDC (Klebsiella pneumoniae, UniProt Q48436).
T3 construct: full length, untagged, expressed from pUC19 in E. coli strain AL
Put plainly: anaerobic growth rescue of E. coli AL and 1H-NMR of broth. Type of data set: cell-based. The conditions noted are these: whole cells; endogenous acetoin reductase background.

Data set [4] concerns the target T4, BDHA (Bacillus subtilis, UniProt O34788).
T4 construct: full length, untagged, expressed from pUC19 in E. coli strain AL
T4 sequence (O34788 1-346): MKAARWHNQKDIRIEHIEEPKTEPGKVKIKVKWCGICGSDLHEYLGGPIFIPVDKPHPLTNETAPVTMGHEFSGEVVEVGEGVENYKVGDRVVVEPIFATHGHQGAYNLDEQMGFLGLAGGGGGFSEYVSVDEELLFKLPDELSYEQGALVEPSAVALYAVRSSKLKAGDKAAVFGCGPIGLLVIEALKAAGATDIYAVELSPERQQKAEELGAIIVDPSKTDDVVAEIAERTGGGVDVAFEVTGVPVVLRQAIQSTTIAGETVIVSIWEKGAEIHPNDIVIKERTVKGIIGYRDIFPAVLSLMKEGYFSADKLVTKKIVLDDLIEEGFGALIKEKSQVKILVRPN
Described as above. The data set is classed as cell-based. The following applies: whole cells; endogenous acetoin reductase background.

The target in data set [5] is T5, TADH (Thermus sp. ATN1, UniProt B2ZRE3).
T5 construct: full length, untagged, expressed from pUC19 in E. coli strain AL
T5 sequence (B2ZRE3 1-347): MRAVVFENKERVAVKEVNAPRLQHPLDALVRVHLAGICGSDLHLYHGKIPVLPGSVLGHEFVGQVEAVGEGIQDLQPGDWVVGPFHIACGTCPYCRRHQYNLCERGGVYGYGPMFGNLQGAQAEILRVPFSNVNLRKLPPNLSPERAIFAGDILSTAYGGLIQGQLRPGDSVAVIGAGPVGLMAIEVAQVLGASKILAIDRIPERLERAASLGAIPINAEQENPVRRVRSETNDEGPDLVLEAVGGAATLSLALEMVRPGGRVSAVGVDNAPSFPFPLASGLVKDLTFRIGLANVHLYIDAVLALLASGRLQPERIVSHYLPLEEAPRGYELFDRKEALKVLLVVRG
The data set is described as above. The data set is classed as cell-based. The conditions noted are these: whole cells, NADH regenerated by glycolysis.

The target of data set [6] is T6, CBADH (Clostridium beijerinckii, UniProt P25984).
T6 construct: gene adh
T6 sequence (P25984 1-351): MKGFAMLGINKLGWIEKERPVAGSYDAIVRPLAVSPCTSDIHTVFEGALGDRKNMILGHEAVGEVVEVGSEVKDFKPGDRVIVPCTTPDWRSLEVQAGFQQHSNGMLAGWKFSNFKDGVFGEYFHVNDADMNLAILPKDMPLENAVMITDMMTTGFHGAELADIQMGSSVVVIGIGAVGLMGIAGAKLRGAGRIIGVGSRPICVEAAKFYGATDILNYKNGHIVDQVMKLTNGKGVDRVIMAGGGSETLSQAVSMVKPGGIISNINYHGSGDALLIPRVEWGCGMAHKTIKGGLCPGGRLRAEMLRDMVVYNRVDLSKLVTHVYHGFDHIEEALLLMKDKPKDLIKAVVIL
Put plainly: NAD(P)H absorbance, initial rates. The data set is classed as biochemical. The conditions noted are these: NADP+, pH 8.8, 37 °C.

The target in data set [7] is T7, MsIRED (Myxococcus stipitatus, UniProt L7U9F5, N32D/R33V/T34R/K37R).
T7 construct: gene MYSTI_01767
As to the kind of experiment: NADH absorbance, initial rates, Michaelis-Menten with substrate inhibition. Type of data set: biochemical. The conditions noted are these: NADH saturating, pH 7.4, 37 °C; substrate inhibition constant.

Data set [8] has as its target T8, MsIRED (Myxococcus stipitatus, UniProt L7U9F5, N32E/R33Y/T34E/K37R/L67I/T71V).
T8 construct: gene MYSTI_01767
The data set is described as above. The data set is classed as biochemical. The conditions noted are these: NADH saturating, pH 7.4, 37 °C; substrate inhibition constant.

Substrate in data set [9]: O=C(O)c1ccc([N+](=O)[O-])cc1
As to the kind of experiment: NADH absorbance, initial rates, anaerobic, Michaelis-Menten fit. The data set is classed as biochemical, Enterobacter cloacae. The conditions noted are these: pH 7.4, 37 °C, saturating cofactor.

Substrate in data set [10]: CC1=NCCC1
As to the kind of experiment: NADH absorbance, initial rates, Michaelis-Menten with substrate inhibition. The data set is classed as biochemical, Myxococcus stipitatus. The following applies: NADH saturating, pH 7.4, 37 °C.

T3 sequence (Q48436 whole entry): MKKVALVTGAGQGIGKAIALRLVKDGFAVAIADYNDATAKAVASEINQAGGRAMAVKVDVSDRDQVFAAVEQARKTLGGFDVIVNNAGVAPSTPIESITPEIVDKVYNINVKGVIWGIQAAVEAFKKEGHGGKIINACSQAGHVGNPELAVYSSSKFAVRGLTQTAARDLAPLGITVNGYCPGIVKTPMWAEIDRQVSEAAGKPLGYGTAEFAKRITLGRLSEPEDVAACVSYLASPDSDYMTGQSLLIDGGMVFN

Consider `O=[N+]([O-])c1ccc(CO)cc1` [4-nitrobenzyl alcohol], for which, in [1], the Km is 1110 µM. Also, in data set [2], the “NADH absorbance, initial rates, anaerobic” value was “it was able to reduce 4-NBA and 4-NBALC but not 2-NBA”.
`CC(=O)C(C)O` (stereo not drawn) [acetoin]: the “anaerobic growth rescue of E. coli AL and 1H-NMR of broth” value (“anaerobic growth rescue” for short) in data set [3] was “acetoin for BDHA and BUDC, and cyclohexanone or 3-methylcyclohexanone for TADH”; in data set [4] it was “acetoin for BDHA and BUDC, and cyclohexanone or 3-methylcyclohexanone for TADH”.
With `CC1CCCC(=O)C1` (stereo not drawn) [3-methylcyclohexanone], the “anaerobic growth rescue” value in data set [5] is “acetoin for BDHA and BUDC, and cyclohexanone or 3-methylcyclohexanone for TADH”.
With `CC(C)O` [isopropanol], the “NAD(P)H absorbance, initial rates” value in data set [6] is “Unlike the parent enzyme CBADHWT, purified CBADHS was unable to oxidize isopropanol using oxidized NADP”.
On to `CC1=NCCC1` [2-methyl-1-pyrroline], for which the Ki came to 11.42 mM in data set [7] and 4.94 mM in [8].
Take `O=C1CCCCC1` [cyclohexanone]: in [5], the “anaerobic growth rescue” value is “acetoin for BDHA and BUDC, and cyclohexanone or 3-methylcyclohexanone for TADH”.

B1: EntNfsB (Enterobacter cloacae) (protein)
chain: MDIISVALKRHSTKAFDASKKLTAEEAEKIKTLLQYSPSSTNSQPWHFIVASTEEGKARVAKSAAGTYVFNERKMLDASHVVVFCAKTAMDDAWLERVVDQEEADGRFNTPEAKAANHKGRTYFADMHRVDLKDDDQWMAKQVYLNVGNFLLGVGAMGLDAVPIEGFDAAILDEEFGLKEKGFTSLVVVPVGHHSVEDFNATLPKSRLPLSTIVTEC
notes: full length, C-terminal His6 (pUC19), E. coli BL21(DE3), FMN holoprotein
Take B1: in [9], the Km was 141 ± 22 µM and the kcat amounted to 0.762 ± 0.0383 s⁻¹.

B2: MsIRED (Myxococcus stipitatus DSM 14675; K37R/N32D/R33V/T34R) (protein)
chain: MKPTLTVIGAGRMGSALIKAFLQSGYTTTVWDVRKARSEPLAKLGAHLADTVRDAVKRSDIIVVNVLDYDTSDQLLRQDEVTRELRGKLLVQLTSGSPALAREQETWARQHGIDYLDGAIMATPDFIGQAECALLYSGSAALFEKHRAVLNVLGGATSHVGEDVGHASALDSALLFQMWGTLFGTLQALAISRAEGIPLEKTTAFIKLTEPVTQGAVADVLTRVQQNRLTADAQTLASLEAHNVAFQHLLALCEERNIHRGVADAMYSVIREAVKAGHGKDDFAILTRFLK
For the molecule B2, in data set [10], the Km worked out at 19570 µM and the kcat was found to be 1.3 s⁻¹.

B3: MsIRED (Myxococcus stipitatus DSM 14675; K37R/L67I/N32E/R33Y/T34E/T71V) (protein)
chain: MKPTLTVIGAGRMGSALIKAFLQSGYTTTVWEYEKARSEPLAKLGAHLADTVRDAVKRSDIIVVNVIDYDVSDQLLRQDEVTRELRGKLLVQLTSGSPALAREQETWARQHGIDYLDGAIMATPDFIGQAECALLYSGSAALFEKHRAVLNVLGGATSHVGEDVGHASALDSALLFQMWGTLFGTLQALAISRAEGIPLEKTTAFIKLTEPVTQGAVADVLTRVQQNRLTADAQTLASLEAHNVAFQHLLALCEERNIHRGVADAMYSVIREAVKAGHGKDDFAILTRFLK
On to B3, for which, in data set [10], the Km was 34060 µM and the kcat is 2.6862 s⁻¹.

Broadly, the Km is the concentration of substrate that gives half-maximal velocity. By kcat is commonly meant the maximal rate divided by the concentration of active sites.

Source of the values: publication PMC8616928, “Versatile selective evolutionary pressure using synthetic defect in universal metabolism” (Nature Communications, 2021).
